According to patent publication US8148391B2 (Cephalon, Inc., priority 2006, dated 2012):
Read-outs that look alike come from different tables or passages of the source. Values belong to the compound of their own block, whether it stands above or below them.

How the values were obtained:
[1] = biological target: T1, baculovirus-expressed ALK (Homo sapiens, UniProt Q9UM73); assay: ALK Kinase Assay (ELISA-type, time-resolved fluorescence); format: biochemical
T1 construct: host or cells: baculovirus expression system
Method in brief: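 Wells were coated with phospholipase C-γ at 10 μg/mL in Tris-buffered saline. Adding 30 ng/ml enzyme started the reaction, which ran at 37° C for 15 minutes before Eu-N1 PT66 antibody detection. Percent inhibition versus log10 concentration gave IC50 by variable-slope fit.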

[2] = biological target: T2, c-Met (cytoplasmic domain) (Homo sapiens, UniProt P08581); assay: c-Met Kinase Assay (same methods as for ALK, with modifications); format: biochemical
T2 construct: 10 ng/mL c-Met (cytoplasmic domain, Invitrogen Corporation #PV3143); purchased Invitrogen Corporation PV3143
Method in brief: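 IC50 values were fitted by variable-slope sigmoidal regression of percent inhibition against log compound concentration. Phosphorylation was read with Eu-N1 PT66 antibody after a 15 min, 37 °C reaction. The reaction was initiated with 10 ng/mL c-Met cytoplasmic domain on wells coated with 10 μg/mL PLC-γ in TBS.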

[3] = ALK kinase inhibition, 1 μM ATP (Km level), read-out: ALK Activity
[4] = c-Met kinase inhibition, 1 μM ATP (Km level), read-out: cMet Activity
[5] = 1 μM ATP (Km level), read-out: ALK Activity (ALK Kinase Inhibition, IC50)
[6] = 1 μM ATP (Km level), read-out: cMet Activity (c-Met Kinase Inhibition, IC50)
[7] = 1 μM ATP (Km level), 30 ng/ml ALK, 37° C., 15 minutes, read-out: ALK Activity (ALK kinase inhibition, IC50 class)
[8] = 1 μM ATP (Km level), 10 ng/mL c-Met, read-out: cMet Activity (c-Met kinase inhibition, IC50 class)
[9] = ALK kinase inhibition, 1 μM ATP, read-out: ALK Activity
[10] = c-Met kinase inhibition, 1 μM ATP, read-out: cMet Activity

T1 sequence (Q9UM73 19-1620): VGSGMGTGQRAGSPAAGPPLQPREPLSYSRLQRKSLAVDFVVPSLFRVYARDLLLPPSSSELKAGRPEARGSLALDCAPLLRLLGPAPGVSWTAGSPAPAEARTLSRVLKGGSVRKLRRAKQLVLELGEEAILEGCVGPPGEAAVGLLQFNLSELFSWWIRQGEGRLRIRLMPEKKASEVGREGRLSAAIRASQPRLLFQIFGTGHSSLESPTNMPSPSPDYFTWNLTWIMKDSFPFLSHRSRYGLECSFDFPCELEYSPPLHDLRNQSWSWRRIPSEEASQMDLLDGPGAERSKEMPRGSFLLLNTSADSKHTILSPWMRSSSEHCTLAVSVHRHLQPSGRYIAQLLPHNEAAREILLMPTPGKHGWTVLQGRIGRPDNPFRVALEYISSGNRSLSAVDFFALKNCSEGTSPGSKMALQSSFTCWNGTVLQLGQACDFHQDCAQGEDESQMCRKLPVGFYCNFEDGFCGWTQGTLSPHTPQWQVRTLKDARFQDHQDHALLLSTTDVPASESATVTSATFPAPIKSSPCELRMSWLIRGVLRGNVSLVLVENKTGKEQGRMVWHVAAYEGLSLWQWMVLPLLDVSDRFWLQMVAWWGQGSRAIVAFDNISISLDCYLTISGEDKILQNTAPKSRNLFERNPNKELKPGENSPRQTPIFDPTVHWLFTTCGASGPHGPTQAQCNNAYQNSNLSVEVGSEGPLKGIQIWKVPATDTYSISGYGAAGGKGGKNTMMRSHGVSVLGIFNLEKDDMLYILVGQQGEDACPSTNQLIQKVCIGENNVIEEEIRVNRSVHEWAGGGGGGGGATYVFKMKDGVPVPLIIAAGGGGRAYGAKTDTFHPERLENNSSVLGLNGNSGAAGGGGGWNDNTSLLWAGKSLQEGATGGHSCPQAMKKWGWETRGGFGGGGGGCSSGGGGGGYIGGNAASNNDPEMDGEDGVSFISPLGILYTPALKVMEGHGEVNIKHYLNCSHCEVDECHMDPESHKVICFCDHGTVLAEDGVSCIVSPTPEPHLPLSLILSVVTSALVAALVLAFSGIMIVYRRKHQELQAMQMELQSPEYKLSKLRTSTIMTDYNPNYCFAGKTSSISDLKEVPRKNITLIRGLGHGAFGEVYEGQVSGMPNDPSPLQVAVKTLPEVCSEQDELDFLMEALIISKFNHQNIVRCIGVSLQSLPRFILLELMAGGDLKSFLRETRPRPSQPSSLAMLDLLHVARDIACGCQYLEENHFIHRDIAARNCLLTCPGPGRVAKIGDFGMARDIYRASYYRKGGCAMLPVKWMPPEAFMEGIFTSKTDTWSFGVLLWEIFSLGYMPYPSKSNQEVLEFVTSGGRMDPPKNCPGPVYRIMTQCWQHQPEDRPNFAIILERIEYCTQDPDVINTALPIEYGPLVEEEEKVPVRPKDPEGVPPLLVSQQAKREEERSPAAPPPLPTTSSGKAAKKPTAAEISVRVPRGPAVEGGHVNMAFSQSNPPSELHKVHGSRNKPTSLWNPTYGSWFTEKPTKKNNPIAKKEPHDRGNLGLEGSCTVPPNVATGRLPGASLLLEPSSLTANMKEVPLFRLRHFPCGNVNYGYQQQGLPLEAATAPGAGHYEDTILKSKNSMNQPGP
T2 sequence (P08581 956-1390 limits assumed): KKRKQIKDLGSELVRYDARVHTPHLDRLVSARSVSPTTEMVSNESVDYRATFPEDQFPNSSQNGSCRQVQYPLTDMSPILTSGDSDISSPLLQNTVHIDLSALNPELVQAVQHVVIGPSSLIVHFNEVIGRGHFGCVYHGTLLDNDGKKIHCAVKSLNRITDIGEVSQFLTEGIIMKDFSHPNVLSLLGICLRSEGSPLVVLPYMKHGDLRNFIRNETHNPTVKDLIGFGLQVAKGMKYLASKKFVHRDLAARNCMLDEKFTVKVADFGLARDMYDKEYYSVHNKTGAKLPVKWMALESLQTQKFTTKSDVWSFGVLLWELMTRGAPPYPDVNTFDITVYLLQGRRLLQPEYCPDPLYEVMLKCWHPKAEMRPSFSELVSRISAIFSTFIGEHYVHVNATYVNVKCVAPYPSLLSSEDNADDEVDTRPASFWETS

Compound: CCN1CC2CC(C1)c1cc(Nc3ncc(Cl)c(NC4C5C=CC(C5)C4C(N)=O)n3)ccc12 (stereo not drawn) [Example 160, (2-exo,3-exo)-3-[5-Chloro-2-(10-ethyl-10-aza-tricyclo[6.3.1.0*2,7*]dodeca-2,4,6-trien-4-ylamino)-pyrimidin-4-ylamino]-bicyclo[2.2.1]hept-5-ene-2-carboxylic acid amide]
IC50 [1, 3]: 100 to 1000 nM | IC50 [2, 4]: 1000 to 10000 nM

Compound: CNC(=O)c1cccc(F)c1Nc1nc(Nc2ccc3c(c2)N(CCOC)C(=O)CCC3)ncc1C(F)(F)F [Example 926, 3-Fluoro-2-{2-[1-(2-methoxy-ethyl)-2-oxo-2,3,4,5-tetrahydro-1H-benzo[b]azepin-8-ylamino]-5-trifluoromethyl-pyrimidin-4-ylamino}-N-methyl-benzamide]
IC50 [1, 5]: < 100 nM | IC50 [2, 6]: < 100 nM

Compound: COCCN1CCc2cc(Nc3ncc(Cl)c(Nc4cc(Cl)ccc4OC)n3)c(OC)cc2CC1 [Example 243, 5-Chloro-N*4*-(5-chloro-2-methoxy-phenyl)-N*2*-[8-methoxy-3-(2-methoxy-ethyl)-2,3,4,5-tetrahydro-1H-benzo[d]azepin-7-yl]-pyrimidine-2,4-diamine]
IC50 [1, 3]: < 100 nM | IC50 [2, 4]: > 10000 nM

Compound: CC1(C)CCC(=O)Nc2ccc(Nc3ncc(Cl)c(Nc4ccccc4-c4nc(C(F)(F)F)c[nH]4)n3)cc21 [Example 1010, 7-{5-Chloro-4-[2-(4-trifluoromethyl-1H-imidazol-2-yl)-phenylamino]-pyrimidin-2-ylamino}-5,5-dimethyl-1,3,4,5-tetrahydro-benzo[b]azepin-2-one]
IC50 [1, 5]: 100 to 1000 nM | IC50 [2, 6]: 1000 to 10000 nM

Compound: CCCNC(=O)c1ccccc1Nc1nc(Nc2ccc3c(c2)CCCC(=O)N3)ncc1Cl [Example 1024, 2-[5-Chloro-2-(2-oxo-2,3,4,5-tetrahydro-1H-benzo[b]azepin-7-ylamino)-pyrimidin-4-ylamino]-N-propyl-benzamide]
IC50 [1, 7]: < 100 nM | IC50 [2, 8]: < 100 nM

Compound: COc1cc2c(cc1Nc1ncc(Cl)c(Nc3ccc(N4CCN(C)CC4)c(OC)c3)n1)CCN(CC(=O)N(C)C)CC2 [Example 804, 2-(7-{5-Chloro-4-[3-methoxy-4-(4-methyl-piperazin-1-yl)-phenylamino]-pyrimidin-2-ylamino}-8-methoxy-1,2,4,5-tetrahydro-benzo[d]azepin-3-yl)-N,N-dimethyl-acetamide]
IC50 [1, 5]: < 100 nM | IC50 [2, 6]: > 10000 nM

Compound: CNC(=O)c1cc(C)cc(C)c1Nc1nc(Nc2ccc3c(c2)CCN(CCOC)CC3)ncc1Cl [Example 317, 2-{5-Chloro-2-[3-(2-methoxy-ethyl)-2,3,4,5-tetrahydro-1H-benzo[d]azepin-7-ylamino]-pyrimidin-4-ylamino}-3,5,N-trimethyl-benzamide]
IC50 [1, 3]: 100 to 1000 nM | IC50 [2, 4]: 100 to 1000 nM

Compound: COCCN1CCc2ccc(Nc3ncc(Cl)c(Nc4ccccc4-c4nc(C(F)(F)F)c[nH]4)n3)cc2CC1 [Example 1011, 5-Chloro-N*2*-[3-(2-methoxy-ethyl)-2,3,4,5-tetrahydro-1H-benzo[d]azepin-7-yl]-N*4*-[2-(4-trifluoromethyl-1H-imidazol-2-yl)-phenyl]-pyrimidine-2,4-diamine]
IC50 [1, 5]: < 100 nM | IC50 [2, 6]: 100 to 1000 nM

Compound: COc1cc2c(cc1Nc1ncc(Cl)c(Nc3ccccc3S(=O)(=O)N3CCCC3)n1)CCN(CC(=O)N(C)C)CC2 [Example 1181, 2-(7-{5-Chloro-4-[2-(pyrrolidine-1-sulfonyl)-phenylamino]-pyrimidin-2-ylamino}-8-methoxy-1,2,4,5-tetrahydro-benzo[d]azepin-3-yl)-N,N-dimethyl-acetamide]
IC50 [1, 7]: < 100 nM | IC50 [2, 8]: 1000 to 10000 nM

Compound: CCN1CCN(CC)c2cc(Nc3ncc(Cl)c(N[C@@H]4CCCC[C@H]4NS(C)(=O)=O)n3)c(Cl)cc2C1 [Example 427, N-{(1R,2R)-2-[5-Chloro-2-(7-chloro-1,4-diethyl-2,3,4,5-tetrahydro-1H-benzo[e][1,4]diazepin-8-ylamino)-pyrimidin-4-ylamino]-cyclohexyl}-methanesulfonamide]
IC50 [1, 3]: < 100 nM | IC50 [2, 4]: > 10000 nM

Compound: CCN1CC2CC(C1)c1cc(Nc3ncc(Cl)c(Nc4ccccc4C(=O)NC)n3)ccc12 (stereo not shown) [Example 156, 2-[5-Chloro-2-(10-ethyl-10-aza-tricyclo[6.3.1.0*2,7*]dodeca-2,4,6-trien-4-ylamino)-pyrimidin-4-ylamino]-N-methyl-benzamide]
IC50 [1, 3]: < 100 nM | IC50 [2, 4]: < 100 nM

Compound: 5-Chloro-N*2*-[7-(2,2-difluoro-ethylamino)-1-methoxy-6,7,8,9-tetrahydro-5H-benzocyclohepten-2-yl]-N*4*-methyl-N*4*-[2-(propane-2-sulfonyl)-phenyl]-pyrimidine-2,4-diamine [Example 678]
IC50 [1, 5]: < 100 nM | IC50 [2, 6]: > 10000 nM

Compound: CNC(=O)c1ccc(Nc2nc(Nc3cc4c(cc3OC)CCN(Cc3ncco3)CC4)ncc2Cl)c(OC)c1 [Example 1182, 4-[5-Chloro-2-(8-methoxy-3-oxazol-2-ylmethyl-2,3,4,5-tetrahydro-1H-benzo[d]azepin-7-ylamino)-pyrimidin-4-ylamino]-3-methoxy-N-methyl-benzamide]
IC50 [1, 7]: < 100 nM | IC50 [2, 8]: > 10000 nM

The remaining lines, values ahead:

IC50 [1, 7]: 100 to 1000 nM | IC50 [2, 8]: 1000 to 10000 nM
Compound: CCN1C(=O)CCC(C)(C)c2ccc(Nc3ncc(Cl)c(Nc4c(F)cccc4S(C)(=O)=O)n3)cc21 [Example 1259, 8-[5-Chloro-4-(2-fluoro-6-methanesulfonyl-phenylamino)-pyrimidin-2-ylamino]-1-ethyl-5,5-dimethyl-1,3,4,5-tetrahydro-1-benzazepin-2-one]

IC50 [1, 7]: < 100 nM | IC50 [2, 8]: 1000 to 10000 nM
Compound: COc1cc2c(cc1Nc1ncc(Cl)c(Nc3ccccc3S(=O)(=O)N3CC[C@@H](O)C3)n1)CCN(CC(=O)N(C)C)CC2 [Example 1205, 2-(7-{5-Chloro-4-[2-((R)-3-hydroxy-pyrrolidine-1-sulfonyl)-phenylamino]-pyrimidin-2-ylamino}-8-methoxy-1,2,4,5-tetrahydro-benzo[d]azepin-3-yl)-N,N-dimethyl-acetamide]

IC50 [1, 7]: < 100 nM | IC50 [2, 8]: > 10000 nM
Compound: CNc1nc(OC)ccc1Nc1nc(Nc2cc3c(cc2OC)CCN(CC(=O)N(C)C)CC3)ncc1Cl [Example 1208, 2-{7-[5-Chloro-4-(6-methoxy-2-methylamino-pyridin-3-ylamino)-pyrimidin-2-ylamino]-8-methoxy-1,2,4,5-tetrahydro-benzo[d]azepin-3-yl}-N,N-dimethyl-acetamide]

IC50 [1, 7]: 1000 to 10000 nM | IC50 [2, 8]: < 100 nM
Compound: C#CCNC(=O)c1cccc(F)c1Nc1nc(Nc2ccc3c(c2)NC(=O)C(NC(C)=O)CC3(C)C)ncc1Cl (stereo not shown) [Example 1290, 2-[2-(3-Acetylamino-5,5-dimethyl-2-oxo-2,3,4,5-tetrahydro-1H-1-benzazepin-8-ylamino)-5-chloro-pyrimidin-4-ylamino]-3-fluoro-N-prop-2-ynyl-benzamide]

IC50 [1, 7]: < 100 nM | IC50 [2, 8]: < 100 nM
Compound: C#CCNC(=O)c1cccc(F)c1Nc1nc(Nc2ccc3c(c2)NC(=O)C(N)CC3(C)C)ncc1Cl (stereo not shown) [Example 1280, 2-[2-(3-Amino-5,5-dimethyl-2-oxo-2,3,4,5-tetrahydro-1H-1-benzazepin-8-ylamino)-5-chloro-pyrimidin-4-ylamino]-3-fluoro-N-prop-2-ynyl-benzamide]

IC50 [1, 9]: < 100 nM | IC50 [2, 10]: > 10000 nM
Compound: COc1cc2c(cc1Nc1ncc(Cl)c(N[C@H]3[C@@H](C(N)=O)[C@@H]4C=C[C@H]3C4)n1)CCN(CC(=O)N1CCOCC1)CC2 [Example 1527, (1S,2S,3R,4R)-3-{5-Chloro-2-[8-methoxy-3-(2-morpholin-4-yl-2-oxo-ethyl)-2,3,4,5-tetrahydro-1H-3-benzazepin-7-ylamino]-pyrimidin-4-ylamino}-bicyclo[2.2.1]hept-5-ene-2-carboxylic acid amide]

IC50 [1, 7]: < 100 nM | IC50 [2, 8]: < 100 nM
Compound: CCN1C(=O)CCC(C)(C)c2ccc(Nc3ncc(Cl)c(Nc4ccccc4S(C)(=O)=O)n3)cc21 [Example 1248, 8-[5-Chloro-4-(2-methanesulfonyl-phenylamino)-pyrimidin-2-ylamino]-1-ethyl-5,5-dimethyl-1,3,4,5-tetrahydro-1-benzazepin-2-one]

IC50 [1, 9]: 1000 to 10000 nM | IC50 [2, 10]: 100 to 1000 nM
Compound: CNC(=O)c1ccsc1Nc1nc(Nc2ccc3c(c2)NC(=O)CCC3)ncc1Cl [Example 1485, 2-[5-Chloro-2-(2-oxo-2,3,4,5-tetrahydro-1H-benzo[b]azepin-8-ylamino)-pyrimidin-4-ylamino]-thiophene-3-carboxylic acid methylamide]

IC50 [1, 9]: < 100 nM | IC50 [2, 10]: 100 to 1000 nM
Compound: CNC(=O)c1cccc(F)c1Nc1nc(Nc2ccc3c(c2)N(C(C)C)C(=O)CCC3)ncc1Cl [Example 1474, 2-[5-Chloro-2-(1-isopropyl-2-oxo-2,3,4,5-tetrahydro-1H-benzo[b]azepin-8-ylamino)-pyrimidin-4-ylamino]-3-fluoro-N-methyl-benzamide]

IC50 [1, 9]: 1000 to 10000 nM | IC50 [2, 10]: < 100 nM
Compound: CNC(=O)c1cccc(Br)c1Nc1nc(Nc2ccc3c(c2)CCOC(=O)N3C)ncc1Cl [Example 1751, 3-Bromo-2-[5-chloro-2-(5-methyl-6-oxo-5,6,8,9-tetrahydro-7-oxa-5-aza-benzocyclohepten-2-ylamino)-pyrimidin-4-ylamino]-N-methyl-benzamide]
